The target of data set [1] is T1, P-4501A2 (Homo sapiens, UniProt P05177).
T1 sequence (P05177 1-516): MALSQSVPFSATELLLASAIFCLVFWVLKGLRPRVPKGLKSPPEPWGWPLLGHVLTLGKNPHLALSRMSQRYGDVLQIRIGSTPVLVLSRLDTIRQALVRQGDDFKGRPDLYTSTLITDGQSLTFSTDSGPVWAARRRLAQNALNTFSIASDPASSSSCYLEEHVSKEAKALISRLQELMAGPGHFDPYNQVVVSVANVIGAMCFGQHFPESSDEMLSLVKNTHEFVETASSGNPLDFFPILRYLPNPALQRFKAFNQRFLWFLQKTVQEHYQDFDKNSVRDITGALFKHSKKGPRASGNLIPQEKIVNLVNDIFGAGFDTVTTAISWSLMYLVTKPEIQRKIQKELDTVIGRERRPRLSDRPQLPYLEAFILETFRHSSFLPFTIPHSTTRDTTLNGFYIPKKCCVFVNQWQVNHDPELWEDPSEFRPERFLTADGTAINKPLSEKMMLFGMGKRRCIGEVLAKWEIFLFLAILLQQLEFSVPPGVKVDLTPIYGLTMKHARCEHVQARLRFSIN
As to the kind of experiment: Inhibition of P-450 mediated caffeine metabolism to paraxanthine in human liver microsomes. Conditions: for inhibition of P-450-mediated caffeine metabolism (in words): human liver microsomes, summary of Table 1; for activity at 0 h, 100 µM / activity at 5 min, 100 µM / activity at 20 min, 100 µM: human. On the procedure: The model system directly measures inhibition of P-4501A2-mediated metabolism in the physiological environment of human liver microsomes. Measurement of drug metabolism in a microsome system is directly predictive of liver metabolism in vivo. Thus, microsome data can be used to estimate the in vivo circulating half-life of compounds that are primarily metabolized in the liver.
Microsomes were prepared by standard techniques from four human livers. […] Three sets of enantiomers, CT2408 R&S, CT2410 R&S, and CT2412 R&S, were evaluated for inhibition of caffeine metabolism to paraxanthine by P-450.
Briefly, the inventive compounds were preincubated in microsomes with NADPH at concentrations of 100 μM for 0, 5, and 20 minutes. Samples containing only buffer, LSF, or furafylline were used as controls.
At the end of the preincubation period, the samples were diluted in a solution of NADPH and caffeine. The samples then were incubated for twenty minutes. Hydroxyethyl theophylline was added as an internal standard, and the samples were analyzed for paraxanthine via HPLC. Decreased paraxanthine formation is indicative of inhibition of P-450-mediated caffeine metabolism.
Incubation conditions and analysis of paraxanthine
To 200 μL microsomal suspension (HL-124; 20 mg/mL protein, P-450 specific activity 0.24 nmol/mg protein) and 100 μL 8.0 mM NADPH (Sigma, tetrasodium salt) in 100 mM phosphate buffer pH 7.4 preincubated for 2 minutes at 37° were added 100 μL of test compound solution (400 μM) in phosphate buffer ([…], pH 7.4). The solution then was incubated at 37° with agitation for 0, 5, and 20 minutes at which times 100 μL of the solution was transferred to another tube containing 200 μL 12.5 mM caffeine and 200 μL 5.0 mM NADPH which had been warmed at 37° for 2 minutes. The suspensions then were incubated for 20 minutes, 200 μL acetonitrile added, and the tubes placed on ice.
After all incubations were finished, 50 μL β-hydroxyethyl theophylline (50 μg/mL, HET) was added as an internal standard. Paraxanthine standards were prepared in 0.5 mL phosphate buffer containing 2.0 mg boiled microsomal protein ranging in concentration from 0.433 to 13.9 nmol/sample.
The suspensions then were extracted for 5 minutes with 7.0 mL methylene chloride (Fisher Optima grade), centrifuged at 3,000 g and the aqueous layer aspirated to waste. An aliquot of the organic (5.5 mL) was then transferred to another tube, evaporated to dryness under nitrogen at 30°, and reconstituted in 20% methanol/water.
Thirty microliters of reconstituted sample were then applied to an Hewlett Packard 1050 HPLC system equipped with a Rainin Microsorb™ 4.6×100 mm column with 3 μm C-18 packing. Mobile phase was maintained at 1.0 mL/min and changed from 2:13:85 to 2:20:78 acetonitrile:methanol:25 mM phosphate buffer, pH 5 over 10 minutes, the column was then washed by increasing the acetonitrile to 20% prior to re-equilibration for the next injection. Column eluent was monitored at 285 nm and paraxanthine, HET, and caffeine respectively eluted at 5.3, 6.6, and 9.8 minutes.
On the technique in general: Liver microsomes are a subcellular fraction often used to study metabolism.

The test system of data set [2] is caffeine metabolism. As to conditions: cited from earlier work.
The subject of data set [3] is LSF metabolism. Briefly: Co-administration of furafylline with LSF: circulating half-life of LSF. The format is in vivo. As to conditions: co-administered with LSF.
Data set [4] concerns P-450IA2. Conditions: liver; Sesardic et al.; cited from earlier work.
Data set [5] deals with P-450IA2. As to conditions: Lillibridge et al.; cited from earlier work.
For data set [6] the following is noted: human, in vivo; cited from earlier work.

As to `Cc1nc2c([nH]1)c(=O)n(CCCCC(C)O)c(=O)n2C` (stereo not drawn) [CT2408 R&S, 1-(5-Hydroxyhexyl)-3,8-dimethylxanthine], the “inhibition of P-450-mediated caffeine metabolism (in words)” value in data set [1] is recorded as “showed similar inhibition”.

Take `Cc1nc2c([nH]1)c(=O)n(CCCC[C@@H](C)O)c(=O)n2C` [CT2408R, (R)-1-(5-Hydroxyhexyl)-3,8-dimethylxanthine]: in data set [1] (liver microsomes), the activity at 0 h, 100 µM worked out at 95.2%; the activity at 5 min, 100 µM turned out to be 73.9%; the activity at 20 min, 100 µM was found to be 46.6%.

For the compound `Cc1nc2c([nH]1)c(=O)n(CCCC[C@H](C)O)c(=O)n2C` [CT2408S, (S)-1-(5-Hydroxyhexyl)-3,8-dimethylxanthine], in data set [1] (liver microsomes), the activity at 0 h, 100 µM worked out at 97.2%; the activity at 5 min, 100 µM turned out to be 71%; the activity at 20 min, 100 µM is 41.8%.

In the case of `Cc1nc2c(c(=O)n(CCCCC(C)O)c(=O)n2C)n1C` (stereo not drawn) [CT2410, 1-(5-Hydroxyhexyl)-3,7,8-trimethylxanthine], the “inhibition of P-450-mediated caffeine metabolism (in words)” value in data set [1] was “Neither CT2410 (1-(5-Hydroxyhexyl)-3,7,8-trimethylxanthine) nor LSF ((R)-1-(5-Hydroxyhexyl)-3,7-dimethylxanthine) had any inhibitory effect”.

In the case of `Cc1nc2c(c(=O)n(CCCC[C@@H](C)O)c(=O)n2C)n1C` [CT2410R, 1-(5-Hydroxyhexyl)-3,7,8-trimethylxanthine], in data set [1] (liver microsomes), the activity at 0 h, 100 µM is 92.8%; the activity at 5 min, 100 µM was found to be 87.8%; the activity at 20 min, 100 µM was determined as 88.3%.

On to `Cc1nc2c(c(=O)n(CCCC[C@H](C)O)c(=O)n2C)n1C` [CT2410S, 1-(5-Hydroxyhexyl)-3,7,8-trimethylxanthine], for which, in data set [1] (liver microsomes), the activity at 0 h, 100 µM amounted to 101%; the activity at 5 min, 100 µM was 91%; the activity at 20 min, 100 µM was 83.5%.

As to `Cc1nc2c([nH]1)c(=O)n(CCCCC(C)O)c(=O)n2Cc1ccco1` (stereo not drawn) [CT2412 R&S, 3-(2-furylmethyl)-1-(5-hydroxyhexyl)-8-methylxanthine], the “inhibition of P-450-mediated caffeine metabolism (in words)” value in data set [1] is listed as “showed similar inhibition”.

For the compound `Cc1nc2c([nH]1)c(=O)n(CCCC[C@@H](C)O)c(=O)n2Cc1ccco1` [CT2412R, (R)-3-(2-Furylmethyl)-1-(5-hydroxyhexyl)-8-methylxanthine], in data set [1] (liver microsomes), the activity at 0 h, 100 µM came to 101%; the activity at 5 min, 100 µM was determined as 82.8%; the activity at 20 min, 100 µM is 56.3%.

With `Cc1nc2c([nH]1)c(=O)n(CCCC[C@H](C)O)c(=O)n2Cc1ccco1` [CT2412S, (S)-3-(2-Furylmethyl)-1-(5-hydroxyhexyl)-8-methylxanthine], in data set [1] (liver microsomes), the activity at 0 h, 100 µM came to 98.7%; the activity at 5 min, 100 µM stood at 75.6%; the activity at 20 min, 100 µM was 51.7%.

Regarding `Cc1nc2c([nH]1)c(=O)n(C)c(=O)n2Cc1ccco1` [FRF, 1,8-dimethyl-3-(2'furfuryl)-methylxanthine], in data set [1] (microsomes), the activity at 0 h, 100 µM came out at 36.8%; the activity at 5 min, 100 µM was determined as 13.9%; the activity at 20 min, 100 µM was found to be 10.1%. Besides, the “circulating half-life of caffeine” value in data set [2] (by inhibiting N3 demethylation) was “increases the circulating half-life of caffeine”. The “serum caffeine levels in patients treated” value in data set [2] (clinical trials, Tarrus et al.) is reported as “elevated serum caffeine levels”. For the same compound, the “circulating half-life of LSF on co-administration” value in data set [3] is “increase the circulating half-life of the methylxanthine compound LSF”. Moreover, the “inhibition of P-450IA2 / N3 demethylation of caffeine” value in data set [4] is on record as “inhibiting the P-450 isozyme, P-450IA2, which catalyzes N3 demethylation of caffeine in the liver”.

For the compound `C[C@@H](O)CCCCn1c(=O)c2c(ncn2C)n(C)c1=O` [LSF, (R)-1-(5-Hydroxyhexyl)-3,7-dimethylxanthine, reference compound], the “inhibition of P-450-mediated caffeine metabolism (in words)” value in data set [1] is recorded as “Neither CT2410 (1-(5-Hydroxyhexyl)-3,7,8-trimethylxanthine) nor LSF ((R)-1-(5-Hydroxyhexyl)-3,7-dimethylxanthine) had any inhibitory effect”. Further, in data set [1] (liver microsomes), the activity at 0 h, 100 µM came out at 101%; the activity at 5 min, 100 µM came to 91%; the activity at 20 min, 100 µM came out at 85.8%. The site of metabolism entry in data set [5] was “primary metabolites of LSF and PTX result from modification of the N1 substituent, not the N3 substituent”.

Take `CC(=O)CCCCn1c(=O)c2c(ncn2C)n(C)c1=O` [PTX]: the site of metabolism entry in data set [5] was “primary metabolites of LSF and PTX result from modification of the N1 substituent, not the N3 substituent”.

As for `CC(C(=O)O)c1ccc2oc(-c3ccc(Cl)cc3)nc2c1` (stereo not drawn) [benoxaprofen], the “toxic / side effects” value in data set [6] was “lethal side effects”.

Turning to `Cn1c(=O)c2c(ncn2C)n(C)c1=O` [caffeine, 1,3,7-trimethylxanthine], the site of metabolism result in data set [5] is given as “P-450IA2 mediates demethylation of caffeine at the N3 position of the xanthine ring”.

On to `CC[C@H](CO)NCCN[C@H](CC)CO` [ethambutol R,R-enantiomer], for which, in data set [6], the “toxic / side effects” value is reported as “can cause blindness”.

In the case of `O=C1CC[C@@H](N2C(=O)c3ccccc3C2=O)C(=O)N1` [thalidomide R-isomer], the sedative activity entry in data set [6] is “desired sedative activity resided in the R-isomer”.

Consider `O=C1CC[C@H](N2C(=O)c3ccccc3C2=O)C(=O)N1` [thalidomide S-isomer], for which, in data set [6], the “toxic / side effects” value is listed as “teratogen, causing the birth defects in babies born to mothers using this drug”.

The values above are taken from patent publication US6075029A, “Xanthine modulators of metabolism of cellular P-450” (Cell Therapeutics, Inc., priority 1998, dated 2000).
